Assay results: publication PMC10907753 (Communications Biology, 2024)
“And” between values parts separate entries of the source, which are not always exact repeats. Identical values can stand only once. Like-named read-outs stand apart in the source and are kept apart here.

Tests used:
Xcc NAMPT [1] = target: T1, Xcc NAMPT (Xanthomonas campestris pv. campestris, UniProt A0A0H2X5R2); test: Determination of IC50 value for FK866; format: biochemical
Xcc NAMPT [2] = target: T1, Xcc NAMPT; test: biochemical
human NAMPT [3] = target: T2, human NAMPT (Homo sapiens, UniProt P43490); conditions: NAMPT activators; cited from earlier work
T2 sequence (P43490 whole entry): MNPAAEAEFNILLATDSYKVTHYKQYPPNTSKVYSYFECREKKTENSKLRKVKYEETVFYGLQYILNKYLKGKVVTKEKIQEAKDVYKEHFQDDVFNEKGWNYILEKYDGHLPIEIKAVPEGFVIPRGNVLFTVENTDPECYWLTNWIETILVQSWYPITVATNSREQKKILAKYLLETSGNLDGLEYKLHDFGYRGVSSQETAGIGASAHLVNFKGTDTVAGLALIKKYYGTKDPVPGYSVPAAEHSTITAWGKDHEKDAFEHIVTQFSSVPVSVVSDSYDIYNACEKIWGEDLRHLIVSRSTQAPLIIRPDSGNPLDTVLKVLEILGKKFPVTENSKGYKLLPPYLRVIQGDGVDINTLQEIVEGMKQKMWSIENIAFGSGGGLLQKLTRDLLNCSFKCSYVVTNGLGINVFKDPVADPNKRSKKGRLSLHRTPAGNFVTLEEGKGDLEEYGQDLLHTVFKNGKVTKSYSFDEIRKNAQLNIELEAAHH

Xcc NAMPT [4] = target: T1, Xcc NAMPT; test: NAMPT enzyme activity, fluorometric NMN assay (kinetic constants); format: biochemical
Method: (§1) To ensure the reliability of the results, all assays were performed multiple times. NAMPT enzyme activity was assessed using a chemical approach that converted NMN into a fluorescent derivative, in accordance with established protocols[15],[30].
(§2) The enzymatic reactions were carried out for 15 min at 37 °C, and the quantification of NMN was achieved using the fluorescence method. Briefly, the sample containing NMN (25 μl) was mixed with 10 μl of 20% acetophenone (200 μl acetophenone dissolved in 800 μl DMSO) and 10 μl of 2 M KOH. The mixture was then incubated on ice for 10 minutes before adding 45 μl of 100% formic acid. The resulting mixture was incubated at 37 °C for 15 min. Samples (40 μl) were then transferred to a 384-well plate, and fluorescence intensity was measured using the Victor Nivo Multimode plate reader (Perkin Elmer), with excitation and emission wavelengths set at 355/40 and 435/20 nm, respectively.
Correspondingly, the additions of 20% acetophenone, 2 M KOH, and 100% formic acid were adjusted proportionally. The resulting final samples (120 μl) were transferred to 96-well plates, and the fluorescence values were measured following the same procedure as described earlier.
(§3) The kinetic data was analyzed using Graphpad Prism 8. To determine the hill coefficients, substrate-velocity curves were analyzed by nonlinear regression with an allosteric sigmoidal model using the equation v = Vmax S^h/(Km^h + S^h).

[5] = target: Xcc NAMPT H175F-I224F-V291F-I332F quadruple mutant (Xanthomonas campestris pv. campestris, UniProt A0A0H2X5R2, H175F/I224F/I332F/V291F); format: biochemical; conditions: for Km / kcat: 3.5 nM quadruple mutant
Method: as §1, §2
The kinetic data was analyzed using Graphpad Prism 8. To determine the hill coefficients, substrate-velocity curves were analyzed by nonlinear regression with an allosteric sigmoidal model using the equation v = Vmax S^h/(Km^h + S^h). […]
mutant. c-d Michaelis–Menten plots for the tunnel-blocked quadruple mutant of Xcc […]
To determine the kinetic parameters of quadruple mutant, a concentration of 3.5 nM mutant was used. […]

[6] = target: R373A+R180A mutant pair of Xcc NAMPT (Xanthomonas campestris pv. campestris, UniProt A0A0H2X5R2, R180A/R373A); test: NAMPT enzyme activity, fluorometric NMN assay (kinetic constants); format: biochemical
Method: as §2
. Correspondingly, the additions of 20% acetophenone, 2 M KOH, and 100% formic acid were adjusted proportionally. The resulting final samples (120 μl) were transferred to 96-well plates, and the fluorescence values were measured following the same procedure as described earlier.
as §3
Fig. S9 Substrate-velocity curve for the R373A+R180A mutant pair of Xcc
of 0.3 nM mutant pair was used.
μM. The error bars depicted on the plot indicate the standard deviation of
measurements taken from three replicates.

[7] = target: Xcc NAMPT with ATP pretreatment (Xanthomonas campestris pv. campestris, UniProt A0A0H2X5R2); conditions: ITC after ATP treatment, sequential binding
Method: Proteins pretreated with ATP were prepared by incubating 1 μM protein and 1 mM ATP at 25 °C for 30 min. […] The ATP was subsequently removed by gel filtration using the Superdex 200 Increase 10/300 GL column. The final concentrations of proteins were measured by Nanodrop.
figure presented is a representative sample from three separate experiments. A
sequential binding sites model was used to fit the binding curves, yielding the
dissociation constant (Kd) and the stoichiometry (N) of the binding reaction.
(1 picture or pasted object on this page, not shown here)

[8] = tested on: Xcc ΔNamptΔNads (XC_0719 and XC_1067 double deletion mutant); format: cell-based, Xanthomonas campestris pv. campestris; conditions: 0.1 mM supplement, 28 °C
Method: The bacterium Xcc was grown in NYG medium at 28 °C and shaked at 200 rpm for 16–18 h. Once the cells had grown to a point where OD600 reached 1.0, they were harvested via centrifugation and washed twice with MMX medium. Following this, a volume of 0.1 ml of the cell suspension was added to 5 ml of fresh MMX medium. […] The culture was grown at 28 °C and the OD600 values were measured every 12 h. The experiments were repeated at least three times to ensure consistency.

Xcc NAMPT [9] = target: T1, Xcc NAMPT; conditions: read-out: Kd2; ITC, 25 mM NAM into 30 μM NAMPT, sequential binding sites model, second site
human NAMPT [10] = target: T2, human NAMPT; conditions: human NAMPT for NAM; cited from earlier work
human NAMPT [11] = target: T2, human NAMPT; test: NAMPT enzyme activity, fluorometric NMN assay (kinetic constants); format: biochemical; conditions: 30 nM human NAMPT, PRPP 3 to 50 μM
Method: To determine the kinetic parameters of human NAMPT, a concentration of 30 nM His-tagged human NAMPT was used. […] The remaining conditions were kept the same as those employed in the Xcc NAMPT reaction system.
as §2, §3

[12] = FK866 0.4 nM, E=0.4 nM, replicates
[13] = 0.3 nM mutant pair, NAM 0.1 to 4 μM
[14] = substrate of Xcc NAMPT, 37 °C, Michaelis-Menten fit

For `O=C(/C=C/c1cccnc1)NCCCCC1CCN(C(=O)c2ccccc2)CC1` [FK866], the IC50 (Xcc NAMPT [1]) was 0.00023 µM, the Activity % (Xcc NAMPT [1]; FK866 0.02 nM, E=0.4 nM, replicates) was 99.2204% and 100.986% and 94.6063% and 98.6899% and the Activity % (Xcc NAMPT [1]; FK866 0.04 nM, E=0.4 nM, replicates) was 101.785% and 102.935% and 85.505% and 97.238%. For the same molecule, the Activity % (Xcc NAMPT [1]; FK866 0.1 nM, E=0.4 nM, replicates) was 78.2474% and 70.3189% and 72.1819% and 76.3149%, the Activity % (Xcc NAMPT [1]; FK866 0.2 nM, E=0.4 nM, replicates) was 62.8959% and 69.0568% and 55.7537% and 65.4354% and the Activity % (Xcc NAMPT [1]; [12]) was 17.7119% and 13.8804% and 14.6162%. For the same molecule, the activity at 0.0004 µM (Xcc NAMPT [1]; [12]) was 14.2%, the Activity % (Xcc NAMPT [1]; FK866 1 nM, E=0.4 nM, replicates) was 4.02% and 4.725% and 5.923% and 4.615% and the Activity % (Xcc NAMPT [1]; FK866 2 nM, E=0.4 nM, replicates) was 1.856% and 4.769% and 2.139% and 3.338%. For the same molecule, the Kd (Xcc NAMPT [2]) was 0.0822 µM.
In the case of `O=C(NCc1ccncc1)Nc1ccc(S(=O)(=O)N2CC3CCC(C2)O3)cc1` [SBI-797812], the “effect on the enzymatic activity of human NAMPT” value (human NAMPT [3]) is listed as “almost double”.
With `NC(=O)c1cccnc1` [NAM, nicotinamide] the hill coefficient (Xcc NAMPT [4]; NAM substrate-velocity curve, allosteric sigmoidal model) was ~ 1.98, the Km [5] was 7.33 ± 0.66 µM and the kcat [5] was 0.55 ± 0.02 s⁻¹. For the same molecule, the hill coefficient ([5]; NAM, quadruple mutant) was 1.00, the Km [6, 13] was 0.08 ± 0.01 µM and the kcat [6, 13] was 0.188 ± 0.005 s⁻¹. The “hill coefficient (H)” value ([6]; mutant pair, NAM) was 1.64 ± 0.32 and 1.64, the Kd ([7]; read-out: Kd (first binding site)) was 330 µM and the Kd ([7]; read-out: Kd (second binding site)) was 2990 µM. The “growth of ΔNamptΔNads in MMX with supplement” value (from here on “growth of ΔNamptΔNads in MMX”) [8] was “did not grow”, the Kd (Xcc NAMPT [9]) was 21000 µM and the Km (human NAMPT [10]) was 0.005 ± 0.002 µM. It also gave a Kd (Xcc NAMPT [2]) of 1410 µM.
Molecule `O=P(O)(O)OC[C@H]1O[C@H](OP(=O)(O)OP(=O)(O)O)[C@H](O)[C@@H]1O` [PRPP] has a Km (Xcc NAMPT [4]; [14]) of 24.4 ± 6.26 µM, a kcat (Xcc NAMPT [4]; [14]) of 6.99 ± 0.56 s⁻¹ and a kcat (human NAMPT [11]) of 0.045 ± 0.001 s⁻¹. For the same molecule, the Km (human NAMPT [11]; 2.5 mM ATP, 10 μM NAM) was 5.41 ± 0.58 µM, the kcat [5] was 0.44 ± 0.01 s⁻¹ and the Km ([5]; read-out: Km) was 9.56 ± 1.14 µM. For the same molecule, the “fold decrease in Km” value ([5]; quadruple mutant vs wild-type) was 2.55 fold, the “fold decrease in catalytic efficiency” value ([5]; quadruple mutant vs wild-type) was “about 5.80 fold” and the “fold decrease in kcat” value ([5]; quadruple mutant vs wild-type) was 15.89 fold.
For `O=C(O)c1cccnc1` [NA, nicotinic acid], the “growth of ΔNamptΔNads in MMX” value [8] was “did not grow”.
With `NC(=O)c1ccc[n+]([C@@H]2O[C@H](CO)[C@@H](O)[C@H]2O)c1` [NmR, nicotinamide riboside] the “growth of ΔNamptΔNads in MMX” value [8] was “did not grow”.
In the case of `NC(=O)c1ccc[n+]([C@@H]2O[C@H](COP(=O)([O-])OP(=O)(O)OC[C@H]3O[C@@H](n4cnc5c(N)ncnc54)[C@H](O)[C@@H]3O)[C@@H](O)[C@H]2O)c1` [NAD+, nicotinamide adenine dinucleotide], the “growth of ΔNamptΔNads in MMX” value [8] is reported as “able to grow”.
For `Nc1ncnc2c1ncn2[C@@H]1O[C@H](COP(=O)(O)OP(=O)(O)OP(=O)(O)O)[C@@H](O)[C@H]1O` [ATP], the Km (Xcc NAMPT [4]) was 560 ± 60 µM and the kcat (Xcc NAMPT [4]; [14]) was 4.40 ± 0.16 s⁻¹.
